Laboratory results: patent publication US20220347186A1, “METHODS AND COMPOSITIONS FOR TREATING SICKLE CELL DISEASE AND THALASSEMIA” (THE UNIVERSITY OF CHICAGO, priority 2019, published 2022)
Entries after “also recorded” stand apart in the source; their conditions may differ.

Legend:
K562 cells [1] = experiment: Cell growth and viability of K562 cells with BET inhibitor; format: cell-based; conditions: 200 nM vs DMSO control
Method: (§1) K562, HEL, and HL-60 cells were cultured in RPMI 1640 medium supplemented with 10% FBS. TF-1 cells were cultured in RPMI 1640 medium supplemented with 10% FBS and 4 ng/mL GM-CSF. Before treatment, TF-1 cells were washed 4× with RPMI 1640 without supplements, and cultured in RPMI 1640 medium with 10% FBS but no GM-CSF for 24 hours. 4 ng/mL GM-CSF or 3 units/mL EPO were added at the time of treatment set up. K562, HEL, and HL-60 cells were cultured as normal until treatment set up. JQ1 (Sigma-Aldrich, SML1524), CPI-0610 (Selleck Chemicals, S7853), and PLX51107 (MedChemExpress, HY-111422) were dissolved in DMSO to 10 mM concentration and stored in −80° C. All three inhibitors were applied to cells at 200 nM, with parallel DMSO treatment (0.002%) as control. JQ1 and PLX51107 were added to cell culture at day 0 without additional treatments up to day 5. CPI-0610 was reapplied to the cells on a daily basis.

TF-1 cells [2] = experiment: RT-qPCR quantification of gene expression in TF-1 cells; format: cell-based, human
Method: as §1
(§2) cDNA libraries for mRNAs were made from 1 μg input RNA using High-Capacity cDNA Reverse Transcription Kit (ThermoFisher, 4368814). Gene expressions were quantified using Power SYBR Green PCR Master Mix (Thermofisher, 4367659). For microRNAs, cDNA libraries were made with Taqman Advanced miRNA cDNA Synthesis Kit (Thermofisher, A28007). miR-15A and miR-16-1 were quantified using the Taqman Advanced miRNA Assays (ThermoFisher, A25576) specific to hsa-miR-15a-5p (assay ID: 477858_mir) and hsa-miR-16-5p (assay ID: 477860_mir).

TF-1 cells [3] = experiment: RNA-seq gene expression in TF-1 cells; format: cell-based, human
Method: as §1
Sample RNA libraries were prepared using the KAPA mRNA HyperPrep Kit (Roche, KK8580) with 1 μg input RNA and submitted for sequencing. Raw reads in fastq format were aligned to the hg19 reference genome using HISAT2(38) with Gencode gene and transcript annotation (GRCh37.p13)(39). Gene expression was quantified and compared by tools in the Cuffliks package (40). GO analysis and term clustering was performed using g:Profiler and Cytoscape following the protocols published by Reimand et al (41).

HEL cells = experiment: RT-qPCR quantification of hemoglobin gene expression in HEL cells; format: cell-based, human; conditions: 200 nM
Method: as §1, §2

K562 cells [4] = experiment: Benzidine-hematoxylin staining for hemoglobin producing cells; format: cell-based; conditions: 200 nM
Method: as §1
K562 cells were counted, and 200,000 cells were collected by spinning at 400 g. […]
At least three randomly selected fields of stained cells were imaged at 40× magnification. […] The numbers of benzidine-positive cells and the intensity of benzidine staining were quantified in the benzidine channel, whereas the total cell number and abnormal nuclear morphology were quantified in the hematoxylin channel. Results of all fields from each slide were summed for the final quantification.

[5] = TF-1 cells, both proliferation and erythropoietic conditions

For Cc1sc2c(c1C)C(c1ccc(Cl)cc1)=N[C@@H](CC(=O)OC(C)(C)C)c1nnc(C)n1-2 [JQ1], the Cell growth (K562 cells [1]) was “grow slower; also recorded: not significantly affected; also recorded: slightly suppresses cell growth, but this effect was not statistically significant; also recorded: slightly suppress cell growth, but this effect was not statistically significant”, the Cell viability (K562 cells [1]) was “unaffected; also recorded: not significantly affected; also recorded: did not affect cell viability” and the miR-15A expression (TF-1 cells [2]; TF-1 cells) was “significantly upregulated”. For the same compound, the miR-16-1 expression (TF-1 cells [2]; TF-1 cells) was “significantly upregulated”, the HBB expression (TF-1 cells [2]; TF-1 cells treated with both EPO and JQ1) was “significantly decreased” and the HBE1 expression increase (TF-1 cells [2]; TF-1 cells treated with both EPO and JQ1, day 5) was “over 200 fold”. The HBB expression (TF-1 cells [2]; TF-1 cells under proliferative condition, 200 nM) was “not observed”, the HBE1 expression (TF-1 cells [2]; TF-1 cells, 200 nM, without EPO) was “only upregulated” and the BCL11A expression (TF-1 cells [2]; TF-1 cells, RT-qPCR) was “significantly suppressed”. For the same compound, the MYB expression (TF-1 cells [2]; TF-1 cells, RT-qPCR) was “significantly suppressed”, the HEMGN expression (TF-1 cells [2]; TF-1 cells, RT-qPCR, especially under erythropoietic condition) was “significantly suppressed” and the “Proportion of HBB transcripts relative to total β-globin transcripts” value (TF-1 cells [2]; [5]) was “significantly decreased”. For the same compound, the “Proportion of HBE1 transcripts relative to total β-globin transcripts” value (TF-1 cells [2]; [5]) was “increased”, the GATA1 expression (TF-1 cells [3]; TF-1 cells) was “did not change” and the “HBA1/2 expression (α-globin locus)” value (TF-1 cells [3]; TF-1 cells) was “upregulated”. For the same compound, the “HBE1 expression (β-globin locus)” value (TF-1 cells [3]; TF-1 cells) was “specifically induced”, the HEMGN expression (TF-1 cells [3]; TF-1 cells) was “significantly suppresses” and the KLF1 expression (TF-1 cells [3]; TF-1 cells, erythropoietic condition) was “slightly decreased”. For the same compound, the ALAS2 expression (TF-1 cells [3]; TF-1 cells, especially under erythropoietic conditions) was “upregulated”, the KLF1 expression (TF-1 cells [3]; TF-1 cells, proliferative condition) was “significantly suppressed” and the NR2F2 expression (TF-1 cells [3]; proliferative TF-1 cells) was “significantly suppressed”. For the same compound, the HBB expression (HEL cells) was “suppressing”, the HBE1 expression (HEL cells) was “significantly upregulated” and the HBG1/2 expression (HEL cells) was “significantly upregulated”. The “Percentage of hemoglobin producing cells (benzidine-hematoxylin staining)” value (K562 cells [4]; day 3) was about 6% and the “Percentage of hemoglobin producing cells (benzidine-hematoxylin staining)” value (K562 cells [4]; day 5) was “over 10%”.
